Calls of active or inactive are those of the source.
How the values were obtained:
[1] = target: T1, Neuropeptides B/W receptor type 1 (Homo sapiens, UniProt P48145); test: Fluorescence-based dose response cell-based high throughput screening assay to identify antagonists of the G-protein coupled receptor 7 (GPR7). [Related pubchem assays: 1952 (Screening assay (GPR7 antagonists).), 1880 (Summary AID.)]; format: functional
T1 sequence (P48145 whole entry): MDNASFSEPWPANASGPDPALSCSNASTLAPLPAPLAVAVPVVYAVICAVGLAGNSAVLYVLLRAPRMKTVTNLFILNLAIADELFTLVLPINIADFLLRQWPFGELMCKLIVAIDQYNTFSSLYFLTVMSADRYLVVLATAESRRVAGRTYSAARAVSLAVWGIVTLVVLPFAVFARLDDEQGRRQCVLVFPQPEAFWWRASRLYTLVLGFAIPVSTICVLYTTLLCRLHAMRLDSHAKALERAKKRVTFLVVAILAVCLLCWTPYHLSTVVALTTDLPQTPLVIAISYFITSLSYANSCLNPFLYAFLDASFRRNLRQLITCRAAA

[2] = target: Melanin-concentrating hormone receptor 1 (Homo sapiens, UniProt Q99705); test: Fluorescence-based counterscreen for antagonists of the G-protein coupled receptor 7 (GPR7): cell-based high throughput dose response assay to identify antagonists of the melanin-concentrating hormone receptor 1 (MCHR1).; format: functional
Sequence of Melanin-concentrating hormone receptor 1 (Q99705 whole entry, the tested form may be a part): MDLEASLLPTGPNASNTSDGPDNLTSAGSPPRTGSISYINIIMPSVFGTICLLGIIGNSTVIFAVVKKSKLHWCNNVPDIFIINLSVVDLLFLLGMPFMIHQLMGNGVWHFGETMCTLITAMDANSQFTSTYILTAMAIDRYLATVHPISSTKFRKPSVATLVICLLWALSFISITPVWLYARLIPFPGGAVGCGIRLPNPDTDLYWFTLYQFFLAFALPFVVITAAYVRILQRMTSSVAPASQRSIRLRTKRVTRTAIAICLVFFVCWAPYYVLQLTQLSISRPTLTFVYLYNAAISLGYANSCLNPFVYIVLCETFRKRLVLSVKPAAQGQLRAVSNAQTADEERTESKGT

[3] = target: T2, Carboxy-terminal domain RNA polymerase II polypeptide A small phosphatase 1 (Homo sapiens, UniProt Q9GZU7); test: inhibitors of CTDSP1, concentration-response testing, biochemical assay, absorbance-based, actives from ultra-high-throughput screening (AID 540297); format: functional
T2 sequence (Q9GZU7 whole entry): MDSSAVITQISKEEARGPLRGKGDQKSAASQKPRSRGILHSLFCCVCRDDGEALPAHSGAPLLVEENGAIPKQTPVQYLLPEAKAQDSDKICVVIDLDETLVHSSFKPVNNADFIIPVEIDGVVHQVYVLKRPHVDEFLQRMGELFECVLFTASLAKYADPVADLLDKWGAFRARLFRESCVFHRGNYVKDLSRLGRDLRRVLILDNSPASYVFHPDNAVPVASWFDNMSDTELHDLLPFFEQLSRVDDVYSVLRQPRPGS

[4] = cytotoxicity toward NIH3T3 fibroblasts, dose response, counter-screen, cell-based, ATP luminescence, mouse fibroblasts (AID 2010); format: functional;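 note: cells exposed to compound for about 90 hours before reading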
cells [5] = test: cells
[6] = inhibitors of intracellular T. cruzi replication, confirmation, NIH3T3 host cells, beta-gal luminescence (AID 2044); format: functional, cell-based;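 note: intracellular parasites grown in NIH/3T3 mouse fibroblasts as host cells; luminescent beta-galactosidase reporter signal from transgenic T. cruzi replicating inside host cells; inhibitors lower the luminescence signal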
[7] = target: T3, Eukaryotic translation initiation factor 2-alpha kinase 3 (Homo sapiens, UniProt Q9NZJ5); test: Counterscreen assay for PERK inhibitors: Dose response cell-based high throughput screening assay to measure inhibition of PERK at 6 hours. [Related pubchem assays: 1522, 1416 ]; format: functional
T3 sequence (Q9NZJ5 whole entry): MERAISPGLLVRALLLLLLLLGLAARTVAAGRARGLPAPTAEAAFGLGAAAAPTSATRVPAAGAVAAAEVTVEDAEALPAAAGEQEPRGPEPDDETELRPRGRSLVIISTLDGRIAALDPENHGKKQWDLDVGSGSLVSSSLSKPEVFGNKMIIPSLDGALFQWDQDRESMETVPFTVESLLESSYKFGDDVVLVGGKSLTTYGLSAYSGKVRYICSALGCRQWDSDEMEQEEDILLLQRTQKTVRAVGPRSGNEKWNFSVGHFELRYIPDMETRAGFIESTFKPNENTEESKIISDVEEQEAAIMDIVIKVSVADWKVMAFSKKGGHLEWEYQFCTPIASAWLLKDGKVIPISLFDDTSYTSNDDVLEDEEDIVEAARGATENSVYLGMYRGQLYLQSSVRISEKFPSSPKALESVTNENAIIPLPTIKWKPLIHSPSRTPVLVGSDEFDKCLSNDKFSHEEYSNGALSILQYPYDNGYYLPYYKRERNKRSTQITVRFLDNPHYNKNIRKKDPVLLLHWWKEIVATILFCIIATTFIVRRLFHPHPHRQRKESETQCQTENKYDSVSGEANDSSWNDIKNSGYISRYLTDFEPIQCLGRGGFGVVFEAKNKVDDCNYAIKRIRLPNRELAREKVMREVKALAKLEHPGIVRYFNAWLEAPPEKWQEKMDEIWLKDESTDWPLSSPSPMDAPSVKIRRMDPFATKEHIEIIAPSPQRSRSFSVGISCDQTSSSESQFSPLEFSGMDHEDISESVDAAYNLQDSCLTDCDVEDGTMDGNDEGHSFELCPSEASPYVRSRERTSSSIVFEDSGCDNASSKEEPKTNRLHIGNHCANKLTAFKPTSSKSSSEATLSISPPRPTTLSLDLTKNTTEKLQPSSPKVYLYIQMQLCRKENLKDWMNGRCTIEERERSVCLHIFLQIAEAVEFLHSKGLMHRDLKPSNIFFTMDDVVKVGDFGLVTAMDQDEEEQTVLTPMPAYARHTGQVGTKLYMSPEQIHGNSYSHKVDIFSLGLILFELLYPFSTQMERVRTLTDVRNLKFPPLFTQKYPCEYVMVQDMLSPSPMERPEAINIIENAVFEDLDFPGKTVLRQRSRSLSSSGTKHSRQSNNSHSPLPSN

H9c2 = test: cells; format: functional, cell-based; details: Rattus norvegicus, H9c2, Myocardium;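 note: confirmatory concentration-response retest of ultra-high-throughput screening hits for modulation of myocardial damage; cell death induced by hydrogen peroxide oxidative stress; compound pretreatment for 60 min then peroxide exposure for 2 h; potency is for protecting the cells against peroxide damage rather than for killing them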
[8] = target: T3, Eukaryotic translation initiation factor 2-alpha kinase 3; test: Dose response cell-based high-throughput screening assay to measure PERK inhibition. [Related pubchem assays: 1416 ]; format: functional
[9] = inhibitors of firefly luciferase expression or activity, dose response, H4 neuroglioma cells, luminescence (AID 1990); format: functional, cell-based
BJ [10] = test: cells; format: functional, cell-based; details: Homo sapiens
cells [11] = format: functional, cell-based
[12] = inhibitors of SNCA 5'UTR-driven translation, confirmation, luminescence, H4 neuroglioblastoma cells, dose confirmation (AID 2454); format: functional, cell-based;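 note: H4 neuroglioblastoma cells carrying an alpha-synuclein 5'UTR luciferase reporter; potency for inhibition of the luciferase signal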
[13] = Luminescence Cell-Based Dose Response HTS to Identify Inhibitors of 5'UTR Stem-Loop Driven Prion Protein mRNA Translation in H4 Neuroglioblastoma Cells. [Related pubchem assays: 1827 (Project Summary), 1813 (Primary HTS)]; format: functional
BJ [14] = test: cytotoxicity toward Ras-transformed BJeLR fibroblasts, dose response, cell-based, alamar blue fluorescence, cherrypicked samples (AID 2631); format: functional; details: Homo sapiens;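 note: confirmatory dose-response assay in RAS-dependent BJ fibroblasts engineered with TERT, LT and ST, with cytotoxicity read by fluorescence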
[15] = luciferase reporter signal reduction – luminescence, H4-C neuroglioblastoma cells, dose response (AID 2458); format: functional, cell-based;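 note: H4 neuroglioblastoma cells stably carrying a luciferase reporter gene fusion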
BJ [16] = test: cytotoxicity toward BJ-TERT-LT-ST fibroblasts, dose response, cell-based, RAS-independent, luminescence (AID 1935); format: functional; details: Homo sapiens;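 note: BJ fibroblasts immortalized with TERT plus LT and ST oncogenes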
BJ [17] = test: cytotoxicity toward BJ-TERT fibroblasts, dose response, cell-based, RAS-independent, luminescence (AID 1933); format: functional; details: Homo sapiens
[18] = cytotoxicity toward DRD oncogenic fibroblasts, dose response, cell-based, non-viral oncogenic, luminescence (AID 1934); format: functional; details: Homo sapiens
[19] = inhibitors of SNCA 5'UTR-driven reporter translation, confirmation, H4 neuroglioma cells, luminescence (AID 1988); format: functional, cell-based
[20] = target: T4, Fructose-bisphosphate aldolase (Mycobacterium tuberculosis, UniProt P9WQA3); test: Fluorescence-based biochemical high throughput dose response assay for inhibitors of the fructose-bisphosphate aldolase (FBA) of M. tuberculosis.; format: functional
T4 sequence (P9WQA3 whole entry): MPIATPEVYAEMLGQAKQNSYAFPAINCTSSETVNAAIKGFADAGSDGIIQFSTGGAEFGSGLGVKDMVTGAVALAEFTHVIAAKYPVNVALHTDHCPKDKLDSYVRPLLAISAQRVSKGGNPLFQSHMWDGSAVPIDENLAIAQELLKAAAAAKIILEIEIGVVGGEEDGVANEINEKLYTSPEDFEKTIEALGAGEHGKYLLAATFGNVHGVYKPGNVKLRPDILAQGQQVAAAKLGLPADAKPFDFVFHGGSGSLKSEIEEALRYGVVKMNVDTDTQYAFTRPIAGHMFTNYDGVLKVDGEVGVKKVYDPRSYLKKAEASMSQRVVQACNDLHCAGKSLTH

[21] = cytotoxicity in HEK-293T cells, dose response, cytotoxicity control for TCR NF-kB inhibitor project, luminescence, T-cell screen hits (AID 489026); format: functional, cell-based;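 note: cells exposed to compound about 14 hours before the viability readout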
[22] = enhancers of respiration in Yfh1-depleted yeast, dose response, Friedreich's ataxia, plus single-dose screen (AID 1465); format: functional;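 note: yeast depleted of Yfh1p frataxin homolog grown on glycerol needing respiration; WST-1 tetrazolium dye reduction as measure of cellular dehydrogenase metabolic activity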
HeLa = test: HeLa cell cytotoxicity, dose response, cytotoxicity control, 24 h, cherry-picked samples (AID 504726); format: functional, cell-based; details: Homo sapiens;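 note: potency for cytotoxicity as loss of luminescence signal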
Bcl-2-like protein 1 = Bcl-2-like protein 1 (Homo sapiens, UniProt Q07817); test: BCL-XL inhibitors, dose response, selectivity assay for MCL1 inhibitor project, biochemical, fluorescence polarization, 1536-well (AID 2218)
Sequence of Bcl-2-like protein 1 (Q07817 whole entry): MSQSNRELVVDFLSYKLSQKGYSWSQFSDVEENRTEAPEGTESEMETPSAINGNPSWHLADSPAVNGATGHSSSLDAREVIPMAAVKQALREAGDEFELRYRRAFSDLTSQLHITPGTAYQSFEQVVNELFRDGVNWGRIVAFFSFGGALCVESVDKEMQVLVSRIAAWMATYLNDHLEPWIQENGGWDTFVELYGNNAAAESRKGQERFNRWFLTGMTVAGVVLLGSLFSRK

[23] = target: T5, Induced myeloid leukemia cell differentiation protein Mcl-1 (Homo sapiens, UniProt Q07820); format: functional
T5 sequence (Q07820 whole entry): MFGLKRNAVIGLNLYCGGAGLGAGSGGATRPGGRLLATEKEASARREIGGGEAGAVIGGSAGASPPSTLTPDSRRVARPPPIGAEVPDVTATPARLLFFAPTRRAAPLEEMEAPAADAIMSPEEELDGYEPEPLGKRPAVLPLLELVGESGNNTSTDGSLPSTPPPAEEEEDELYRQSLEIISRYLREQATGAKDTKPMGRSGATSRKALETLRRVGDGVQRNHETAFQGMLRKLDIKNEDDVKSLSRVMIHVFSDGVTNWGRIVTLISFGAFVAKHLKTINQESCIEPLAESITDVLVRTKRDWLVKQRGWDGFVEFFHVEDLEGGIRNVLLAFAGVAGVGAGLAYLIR

[24] = target: Glucose-6-phosphate 1-dehydrogenase (Homo sapiens, UniProt P11413); test: human G6PD enzyme inhibitors, dose response, selectivity assay for P. falciparum G6PD inhibitor project, biochemical, fluorescence (AID 504792); format: functional
Sequence of Glucose-6-phosphate 1-dehydrogenase (P11413 whole entry): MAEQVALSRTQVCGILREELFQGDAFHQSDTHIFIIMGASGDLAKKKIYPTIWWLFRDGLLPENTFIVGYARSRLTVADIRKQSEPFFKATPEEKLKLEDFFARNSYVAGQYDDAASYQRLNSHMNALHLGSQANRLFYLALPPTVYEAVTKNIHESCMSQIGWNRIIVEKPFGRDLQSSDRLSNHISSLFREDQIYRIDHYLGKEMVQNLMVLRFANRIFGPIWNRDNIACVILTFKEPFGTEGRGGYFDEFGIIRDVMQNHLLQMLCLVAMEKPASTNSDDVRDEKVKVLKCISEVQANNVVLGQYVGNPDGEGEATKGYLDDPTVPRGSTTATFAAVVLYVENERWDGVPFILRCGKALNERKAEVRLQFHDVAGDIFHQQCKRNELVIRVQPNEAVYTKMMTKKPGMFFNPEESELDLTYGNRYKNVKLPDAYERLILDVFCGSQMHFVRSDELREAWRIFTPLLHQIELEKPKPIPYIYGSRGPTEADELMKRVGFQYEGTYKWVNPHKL

[25] = HepG2 cell cytotoxicity, dose response, cytotoxicity control, ATP luminescence, cherry-pick, activator set 2 (AID 1053143); format: functional, cell-based
[26] = THP-1 cell cytotoxicity, dose response, cytotoxicity control for Vif-APOBEC3G degradation inhibitor project, THP-1 cells (AID 1117359); format: functional; details: Human immunodeficiency virus 1, THP-1
[27] = target: T5, Induced myeloid leukemia cell differentiation protein Mcl-1; test: MCL1-BIM BH3 interaction inhibitors, dose response, biochemical, fluorescence polarization, BIM-BH3 peptide, 1536-well (AID 2217)
Vero = Vero cell cytotoxicity, cytotoxicity control for flavivirus capping enzyme inhibitors (AID 588742); format: functional; details: Chlorocebus sabaeus
[28] = target: T6, Zinc finger protein mex-5 (Caenorhabditis elegans, UniProt Q9XUB2); test: MEX-5/TCR-2 RNA interaction inhibitors, dose response, biochemical, C. elegans, fluorescence polarization (AID 1960)
T6 sequence (Q9XUB2 whole entry): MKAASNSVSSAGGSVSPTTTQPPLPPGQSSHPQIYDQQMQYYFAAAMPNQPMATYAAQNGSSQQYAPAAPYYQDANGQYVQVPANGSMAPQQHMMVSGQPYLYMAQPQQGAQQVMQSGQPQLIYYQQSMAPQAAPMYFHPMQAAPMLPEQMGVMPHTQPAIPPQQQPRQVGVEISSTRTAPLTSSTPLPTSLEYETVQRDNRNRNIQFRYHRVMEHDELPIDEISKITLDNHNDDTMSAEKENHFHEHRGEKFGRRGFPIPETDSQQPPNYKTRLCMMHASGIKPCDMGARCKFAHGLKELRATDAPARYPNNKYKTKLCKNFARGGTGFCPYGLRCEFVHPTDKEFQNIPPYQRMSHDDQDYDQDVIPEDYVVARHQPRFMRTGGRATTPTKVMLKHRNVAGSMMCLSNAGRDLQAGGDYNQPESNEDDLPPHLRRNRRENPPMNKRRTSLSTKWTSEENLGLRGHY

[29] = target: T7, RNA-binding protein pos-1 (Caenorhabditis elegans, UniProt G5EF15); test: inhibitors of POS-1/mex-3 RNA binding, dose response, biochemical, fluorescence polarization (AID 1964);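 note: purified POS-1 fused to maltose binding protein made in E. coli; potency of compounds blocking POS-1 binding to fluorescent RNA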
T7 sequence (G5EF15 whole entry): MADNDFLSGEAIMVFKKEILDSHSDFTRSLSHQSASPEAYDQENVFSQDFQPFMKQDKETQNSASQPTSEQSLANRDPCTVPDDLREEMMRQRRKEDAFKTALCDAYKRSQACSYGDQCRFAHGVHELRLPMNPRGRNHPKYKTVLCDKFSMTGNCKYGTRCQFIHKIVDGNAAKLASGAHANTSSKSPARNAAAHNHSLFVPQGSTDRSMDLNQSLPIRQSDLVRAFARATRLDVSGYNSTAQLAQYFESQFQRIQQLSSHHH

Genome polyprotein = Genome polyprotein (dengue virus type 2, UniProt P29990); test: Dengue-2 NS5 methyltransferase inhibitors, primary screen, biochemical, confirmation dose response (AID 588689); format: functional
Sequence of Genome polyprotein (P29990 2492-3391 limits assumed): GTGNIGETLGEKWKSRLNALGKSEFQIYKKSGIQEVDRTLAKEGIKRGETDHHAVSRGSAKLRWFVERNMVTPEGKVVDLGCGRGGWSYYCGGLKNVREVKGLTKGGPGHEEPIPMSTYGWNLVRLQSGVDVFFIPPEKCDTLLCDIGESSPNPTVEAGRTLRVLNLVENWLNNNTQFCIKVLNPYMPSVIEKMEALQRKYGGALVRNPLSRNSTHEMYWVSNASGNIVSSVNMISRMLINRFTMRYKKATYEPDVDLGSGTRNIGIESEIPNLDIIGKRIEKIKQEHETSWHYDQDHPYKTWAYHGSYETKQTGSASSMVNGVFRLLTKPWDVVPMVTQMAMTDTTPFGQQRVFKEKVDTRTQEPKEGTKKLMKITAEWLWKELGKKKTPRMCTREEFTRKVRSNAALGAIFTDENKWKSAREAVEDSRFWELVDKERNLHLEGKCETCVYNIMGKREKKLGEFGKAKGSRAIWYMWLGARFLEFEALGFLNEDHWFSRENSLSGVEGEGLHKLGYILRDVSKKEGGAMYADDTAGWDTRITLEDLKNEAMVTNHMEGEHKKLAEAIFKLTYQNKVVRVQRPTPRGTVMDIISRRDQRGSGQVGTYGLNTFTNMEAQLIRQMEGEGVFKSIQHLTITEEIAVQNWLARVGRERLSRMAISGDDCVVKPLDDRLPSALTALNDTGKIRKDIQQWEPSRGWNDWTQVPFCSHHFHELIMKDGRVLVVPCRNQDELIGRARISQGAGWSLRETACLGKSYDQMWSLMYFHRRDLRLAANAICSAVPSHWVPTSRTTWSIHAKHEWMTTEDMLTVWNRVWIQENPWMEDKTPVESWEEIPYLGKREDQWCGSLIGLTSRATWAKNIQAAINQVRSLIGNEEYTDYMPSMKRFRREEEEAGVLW

[30] = human group III sPLA2 inhibitors, dose response, biochemical, QFRET, IC50 (AID 743457);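 note: green fluorescence rise as the enzyme cleaves BODIPY PC-A2 in liposomes; potency for inhibition of the enzyme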

In the case of `CCc1ccc(C2CC(c3ccccc3Cl)Nc3nc(N)nn32)cc1` (configuration not stated), the IC50 [1] was 5.58 µM (active) and the IC50 [2] was 19.6 µM (not active).
For `Cc1ccccc1NC(=O)Cn1nnc(S(=O)(=O)c2ccc(C(C)(C)C)cc2)c1N`, the IC50 [1] was > 43.8 µM (not active), the IC50 [2] was > 43.8 µM (not active) and the IC50 [3] was 7.74 µM (active).
With `CN(C)CCCN(C(=O)COc1ccc(Cl)cc1)c1nc2cc3c(cc2s1)OCCO3` the EC50 [4] was > 60 µM (not active), the EC50 (cells [5]) was 69 nM (active) and the EC50 [6] was < 100 nM (active).
For `COC(=O)Cc1nnc(O)c2ccccc12`, the EC50 [7] was > 55.7 µM (not active), the IC50 (H9c2) was > 79 µM (inactive) and the EC50 [8] was > 55.7 µM (not active).
For `O=C(NCC(c1cccnc1)N1CCN(c2ccccc2)CC1)Oc1ccccc1` (configuration not stated), the EC50 [4] was > 30 µM (not active), the EC50 (cells [5]) was 52 nM (active) and the EC50 [6] was < 100 nM (active).
In the case of `N#Cc1ccc(-c2cccs2)nc1SCc1cccnc1`, the EC50 [9] was 5.46 µM (active), the EC50 (BJ [10]) was 15 µM (active) and the EC50 (cells [11]) was 1.24 µM (active). The EC50 [12] was > 12 µM (not active), the EC50 [13] was 156 nM (active) and the EC50 (BJ [14]) was 188 nM (active). For the same molecule, the EC50 [15] was 841 nM (active), the EC50 (BJ [16]) was 3.66 µM (inconclusive) and the EC50 (BJ [17]) was 7.55 µM (inconclusive). The EC50 [18] was 11.5 µM (inconclusive), the EC50 [19] was < 100 nM (active) and the IC50 [20] was > 1.11 µM (active). The IC50 [21] was > 80 µM (inactive).
With `O=C(NNc1nc2ccc(F)cc2s1)c1cccc(F)c1` the EC50 [4] was 6.48 µM (active), the EC50 [22] was > 100 µM (active) and the EC50 [6] was 3840 nM (active).
In the case of `COc1ccc(/C=C/C(=O)NC(=S)Nc2ccc(S(N)(=O)=O)cc2)cc1`, the AC50 (HeLa) was 246 µM (active).
For `C=CC/N=c1\scc(-c2ccco2)n1/N=C/c1ccc(O)c(O)c1O`, the IC50 (Bcl-2-like protein 1) was > 109 µM (not active), the IC50 [23] was 2.81 µM (not active) and the IC50 [24] was > 80 µM (inactive). For the same molecule, the AC50 [25] was 26 µM (active), the CC50 [26] was > 40 µM (active) and the IC50 [27] was 2.94 µM (active). The CC50 (Vero) was 22.8 µM (active), the EC50 [28] was 2.68 µM (active) and the EC50 [29] was 40.6 µM (active). The IC50 (Genome polyprotein) was 83.8 µM (active) and the IC50 [30] was 49.6 µM (inactive).

— ChEMBL document CHEMBL1201862, “PubChem BioAssay data set” (2004)
